Literature values in patent publication US10668050B2, “Compositions, methods and kits for treating diarrhea-predominant irritable bowel syndrome” (RedHill Biopharma Ltd., priority 2014, dated 2020).
Structures can show the parent of a compound that is named as a salt.

Tests used:
[1] = scale of Pliska et al., J. Chromatog. 216, 79, 1981

Structure (SMILES) | solubility | hydropathy value (relative hydrophobic character) [1]
Cc1nccn1CC1CCc2c(c3ccccc3n2C)C1=O (racemic) [Ondansetron HCl dihydrate, Ondansetron hydrochloride] | soluble in water and normal saline | –
NCC(=O)O [glycine] | – | 0
N[C@@H](CC(=O)O)C(=O)O [aspartic acid] | – | −2.15
CC[C@H](C)[C@H](N)C(=O)O [iso-leucine] | – | 1.83
